Tests used:
Settings in all cases: Compound concentration 10 µM
[1] = molecular target: T1, Alpha-1A adrenergic receptor (Homo sapiens) (UniProt P35348)
T1 sequence (whole entry): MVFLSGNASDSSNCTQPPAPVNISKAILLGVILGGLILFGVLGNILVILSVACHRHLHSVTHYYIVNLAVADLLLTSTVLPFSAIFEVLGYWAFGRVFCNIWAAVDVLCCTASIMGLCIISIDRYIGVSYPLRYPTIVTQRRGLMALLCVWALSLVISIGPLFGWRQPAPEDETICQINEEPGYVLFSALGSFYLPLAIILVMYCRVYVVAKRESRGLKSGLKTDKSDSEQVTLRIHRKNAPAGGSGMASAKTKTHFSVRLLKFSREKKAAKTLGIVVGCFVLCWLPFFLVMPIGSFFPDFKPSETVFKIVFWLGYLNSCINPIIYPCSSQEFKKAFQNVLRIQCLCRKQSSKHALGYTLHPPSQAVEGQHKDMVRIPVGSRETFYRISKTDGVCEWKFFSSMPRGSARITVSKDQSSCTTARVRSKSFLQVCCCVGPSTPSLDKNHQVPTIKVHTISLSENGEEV
Description: PDSP Primary Binding target: ADRA1A - Compounds are tested at 10 uM concentration, plate are incubated at room temperature in the dark for 90 minutes. Reaction are stopped by vacuum filtration onto 0.3% polyethyleneimine soaked filter mats using Filtermate harvester. Scintilation cocktail is then melted onto microwave-dried filters on a hot plate and the radio activity is counted in Microbia counter.

[2] = molecular target: Kappa-type opioid receptor (Homo sapiens) (UniProt P41145)
Description: PDSP Primary Binding target: OPRK1 - Compounds are tested at 10 uM concentration, plate are incubated at room temperature in the dark for 90 minutes. Reaction are stopped by vacuum filtration onto 0.3% polyethyleneimine soaked filter mats using Filtermate harvester. Scintilation cocktail is then melted onto microwave-dried filters on a hot plate and the radio activity is counted in Microbia counter.

[3] = molecular target: T2, Alpha-1D adrenergic receptor (Homo sapiens) (UniProt P25100)
T2 sequence (whole entry): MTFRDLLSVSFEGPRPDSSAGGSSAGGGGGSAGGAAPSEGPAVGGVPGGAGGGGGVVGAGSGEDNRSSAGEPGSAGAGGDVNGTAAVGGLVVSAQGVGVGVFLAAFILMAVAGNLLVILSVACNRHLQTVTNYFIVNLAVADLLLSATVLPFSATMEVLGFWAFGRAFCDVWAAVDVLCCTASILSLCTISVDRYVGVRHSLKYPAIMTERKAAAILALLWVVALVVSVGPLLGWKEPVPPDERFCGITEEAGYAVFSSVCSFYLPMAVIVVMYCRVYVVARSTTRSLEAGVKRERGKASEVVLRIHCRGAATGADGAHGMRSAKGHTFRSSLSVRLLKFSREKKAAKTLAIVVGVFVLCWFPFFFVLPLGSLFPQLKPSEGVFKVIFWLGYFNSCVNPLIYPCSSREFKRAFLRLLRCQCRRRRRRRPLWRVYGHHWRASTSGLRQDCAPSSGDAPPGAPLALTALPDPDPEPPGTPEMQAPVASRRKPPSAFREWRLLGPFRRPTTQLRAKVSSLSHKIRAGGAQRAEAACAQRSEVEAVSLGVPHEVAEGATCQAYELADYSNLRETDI
Description: PDSP Primary Binding target: ADRA1D - Compounds are tested at 10 uM concentration, plate are incubated at room temperature in the dark for 90 minutes. Reaction are stopped by vacuum filtration onto 0.3% polyethyleneimine soaked filter mats using Filtermate harvester. Scintilation cocktail is then melted onto microwave-dried filters on a hot plate and the radio activity is counted in Microbia counter.

[4] = molecular target: T3, Alpha-1B adrenergic receptor (Homo sapiens) (UniProt P35368)
T3 sequence (whole entry): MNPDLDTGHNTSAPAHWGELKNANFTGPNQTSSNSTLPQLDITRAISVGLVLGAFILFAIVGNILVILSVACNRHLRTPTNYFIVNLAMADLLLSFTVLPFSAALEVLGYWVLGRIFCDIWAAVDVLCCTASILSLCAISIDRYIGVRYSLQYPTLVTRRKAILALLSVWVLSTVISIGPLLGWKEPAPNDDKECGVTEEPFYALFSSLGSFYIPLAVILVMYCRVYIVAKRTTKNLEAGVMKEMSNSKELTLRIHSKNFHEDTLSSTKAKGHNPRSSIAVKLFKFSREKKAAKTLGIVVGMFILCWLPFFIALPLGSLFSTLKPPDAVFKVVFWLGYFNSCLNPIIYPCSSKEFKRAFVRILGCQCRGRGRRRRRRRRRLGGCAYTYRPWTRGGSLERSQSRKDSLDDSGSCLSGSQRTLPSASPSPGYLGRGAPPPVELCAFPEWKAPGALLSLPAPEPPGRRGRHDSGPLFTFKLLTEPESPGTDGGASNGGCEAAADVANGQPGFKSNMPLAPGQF
Description: PDSP Primary Binding target: ADRA1B - Compounds are tested at 10 uM concentration, plate are incubated at room temperature in the dark for 90 minutes. Reaction are stopped by vacuum filtration onto 0.3% polyethyleneimine soaked filter mats using Filtermate harvester. Scintilation cocktail is then melted onto microwave-dried filters on a hot plate and the radio activity is counted in Microbia counter.

[5] = molecular target: Translocator protein (Homo sapiens) (UniProt P30536)
Description: PDSP Primary Binding target: TSPO - Compounds are tested at 10 uM concentration, plate are incubated at room temperature in the dark for 90 minutes. Reaction are stopped by vacuum filtration onto 0.3% polyethyleneimine soaked filter mats using Filtermate harvester. Scintilation cocktail is then melted onto microwave-dried filters on a hot plate and the radio activity is counted in Microbia counter.

[6] = molecular target: Histamine H1 receptor (Homo sapiens) (UniProt P35367)
Description: PDSP Primary Binding target: HRH1 - Compounds are tested at 10 uM concentration, plate are incubated at room temperature in the dark for 90 minutes. Reaction are stopped by vacuum filtration onto 0.3% polyethyleneimine soaked filter mats using Filtermate harvester. Scintilation cocktail is then melted onto microwave-dried filters on a hot plate and the radio activity is counted in Microbia counter.

[7] = molecular target: T4, Muscarinic acetylcholine receptor M2 (Homo sapiens) (UniProt P08172)
T4 sequence (whole entry): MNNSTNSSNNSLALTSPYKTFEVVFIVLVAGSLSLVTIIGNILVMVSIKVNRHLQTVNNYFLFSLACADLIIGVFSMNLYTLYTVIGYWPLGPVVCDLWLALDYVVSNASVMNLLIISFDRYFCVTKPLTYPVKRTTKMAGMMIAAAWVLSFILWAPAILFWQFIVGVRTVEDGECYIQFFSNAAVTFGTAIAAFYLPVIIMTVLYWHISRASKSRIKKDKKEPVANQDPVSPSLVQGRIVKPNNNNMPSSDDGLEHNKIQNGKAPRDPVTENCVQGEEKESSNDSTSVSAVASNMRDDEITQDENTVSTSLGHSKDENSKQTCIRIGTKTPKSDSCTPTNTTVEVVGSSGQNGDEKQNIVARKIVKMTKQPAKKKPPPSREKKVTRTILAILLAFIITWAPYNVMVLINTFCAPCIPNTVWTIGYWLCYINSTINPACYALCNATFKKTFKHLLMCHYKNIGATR
Description: PDSP Primary Binding target: CHRM2 - Compounds are tested at 10 uM concentration, plate are incubated at room temperature in the dark for 90 minutes. Reaction are stopped by vacuum filtration onto 0.3% polyethyleneimine soaked filter mats using Filtermate harvester. Scintilation cocktail is then melted onto microwave-dried filters on a hot plate and the radio activity is counted in Microbia counter.

[8] = molecular target: Muscarinic acetylcholine receptor M3 (Homo sapiens) (UniProt P20309)
Description: PDSP Primary Binding target: CHRM3 - Compounds are tested at 10 uM concentration, plate are incubated at room temperature in the dark for 90 minutes. Reaction are stopped by vacuum filtration onto 0.3% polyethyleneimine soaked filter mats using Filtermate harvester. Scintilation cocktail is then melted onto microwave-dried filters on a hot plate and the radio activity is counted in Microbia counter.

[9] = molecular target: Delta-type opioid receptor (Homo sapiens) (UniProt P41143)
Description: PDSP Primary Binding target: OPRD1 - Compounds are tested at 10 uM concentration, plate are incubated at room temperature in the dark for 90 minutes. Reaction are stopped by vacuum filtration onto 0.3% polyethyleneimine soaked filter mats using Filtermate harvester. Scintilation cocktail is then melted onto microwave-dried filters on a hot plate and the radio activity is counted in Microbia counter.

[10] = molecular target: 5-hydroxytryptamine receptor 5A (Homo sapiens) (UniProt P47898)
Description: PDSP Primary Binding target: HTR5A - Compounds are tested at 10 uM concentration, plate are incubated at room temperature in the dark for 90 minutes. Reaction are stopped by vacuum filtration onto 0.3% polyethyleneimine soaked filter mats using Filtermate harvester. Scintilation cocktail is then melted onto microwave-dried filters on a hot plate and the radio activity is counted in Microbia counter.

[11] = molecular target: T5, 5-hydroxytryptamine receptor 1A (Homo sapiens) (UniProt P08908)
T5 sequence (whole entry): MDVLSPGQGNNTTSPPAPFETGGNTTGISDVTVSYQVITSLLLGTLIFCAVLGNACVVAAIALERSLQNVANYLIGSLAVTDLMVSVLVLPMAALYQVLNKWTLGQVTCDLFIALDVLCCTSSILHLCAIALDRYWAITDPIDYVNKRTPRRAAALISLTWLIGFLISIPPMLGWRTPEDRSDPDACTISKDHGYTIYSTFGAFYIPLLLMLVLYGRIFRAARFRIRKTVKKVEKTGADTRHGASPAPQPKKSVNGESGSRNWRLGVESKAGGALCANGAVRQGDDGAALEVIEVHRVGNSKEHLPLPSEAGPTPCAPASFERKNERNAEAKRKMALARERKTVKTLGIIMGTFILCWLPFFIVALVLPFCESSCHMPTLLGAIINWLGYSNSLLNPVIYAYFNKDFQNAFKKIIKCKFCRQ
Description: PDSP Primary Binding target: HTR1A - Compounds are tested at 10 uM concentration, plate are incubated at room temperature in the dark for 90 minutes. Reaction are stopped by vacuum filtration onto 0.3% polyethyleneimine soaked filter mats using Filtermate harvester. Scintilation cocktail is then melted onto microwave-dried filters on a hot plate and the radio activity is counted in Microbia counter.

[12] = molecular target: D(1B) dopamine receptor (Homo sapiens) (UniProt P21918)
Chain of D(1B) dopamine receptor (Homo sapiens) (P21918 whole entry): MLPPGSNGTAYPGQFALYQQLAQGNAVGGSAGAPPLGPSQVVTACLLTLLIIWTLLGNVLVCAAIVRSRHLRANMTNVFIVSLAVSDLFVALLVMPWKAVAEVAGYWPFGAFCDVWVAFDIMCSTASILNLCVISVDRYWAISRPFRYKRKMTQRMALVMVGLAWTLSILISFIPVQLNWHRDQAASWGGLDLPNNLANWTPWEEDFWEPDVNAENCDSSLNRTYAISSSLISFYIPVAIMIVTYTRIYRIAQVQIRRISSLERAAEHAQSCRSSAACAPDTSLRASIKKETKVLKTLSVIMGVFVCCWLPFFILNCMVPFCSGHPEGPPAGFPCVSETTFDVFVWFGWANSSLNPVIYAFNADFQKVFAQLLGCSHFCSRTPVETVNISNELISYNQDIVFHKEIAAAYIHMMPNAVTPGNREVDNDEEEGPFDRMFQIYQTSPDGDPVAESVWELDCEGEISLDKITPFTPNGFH
Description: PDSP Primary Binding target: DRD5 - Compounds are tested at 10 uM concentration, plate are incubated at room temperature in the dark for 90 minutes. Reaction are stopped by vacuum filtration onto 0.3% polyethyleneimine soaked filter mats using Filtermate harvester. Scintilation cocktail is then melted onto microwave-dried filters on a hot plate and the radio activity is counted in Microbia counter.

Chain of Histamine H1 receptor (Homo sapiens) (P35367 whole entry): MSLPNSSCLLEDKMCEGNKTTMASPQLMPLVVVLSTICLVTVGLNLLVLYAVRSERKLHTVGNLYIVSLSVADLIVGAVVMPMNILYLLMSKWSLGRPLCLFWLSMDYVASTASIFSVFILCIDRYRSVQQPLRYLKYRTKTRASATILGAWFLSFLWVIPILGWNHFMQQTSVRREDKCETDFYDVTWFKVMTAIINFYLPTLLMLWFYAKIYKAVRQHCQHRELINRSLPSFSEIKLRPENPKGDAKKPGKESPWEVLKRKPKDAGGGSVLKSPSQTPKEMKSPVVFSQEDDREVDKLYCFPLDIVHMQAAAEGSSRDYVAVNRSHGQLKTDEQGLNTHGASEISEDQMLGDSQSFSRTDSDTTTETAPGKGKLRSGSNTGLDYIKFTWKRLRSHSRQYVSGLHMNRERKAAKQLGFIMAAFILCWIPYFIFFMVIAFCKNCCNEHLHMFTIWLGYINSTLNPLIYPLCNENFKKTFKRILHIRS
Chain of Muscarinic acetylcholine receptor M3 (Homo sapiens) (P20309 whole entry, looked up): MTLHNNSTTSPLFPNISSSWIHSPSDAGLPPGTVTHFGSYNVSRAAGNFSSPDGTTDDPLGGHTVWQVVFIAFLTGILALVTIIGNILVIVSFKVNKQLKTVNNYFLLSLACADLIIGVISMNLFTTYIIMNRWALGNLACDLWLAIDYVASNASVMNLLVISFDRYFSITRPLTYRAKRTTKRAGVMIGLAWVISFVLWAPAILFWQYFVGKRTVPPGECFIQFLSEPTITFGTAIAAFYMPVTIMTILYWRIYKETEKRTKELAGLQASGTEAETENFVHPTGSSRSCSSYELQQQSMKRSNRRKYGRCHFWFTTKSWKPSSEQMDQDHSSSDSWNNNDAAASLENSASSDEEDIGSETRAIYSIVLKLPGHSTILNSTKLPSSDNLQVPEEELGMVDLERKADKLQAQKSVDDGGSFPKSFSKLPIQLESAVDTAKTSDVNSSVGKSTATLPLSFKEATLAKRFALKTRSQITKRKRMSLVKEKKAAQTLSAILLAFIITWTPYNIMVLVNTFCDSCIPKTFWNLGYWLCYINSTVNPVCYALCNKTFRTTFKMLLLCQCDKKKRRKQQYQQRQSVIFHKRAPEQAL
Chain of Delta-type opioid receptor (Homo sapiens) (P41143 whole entry): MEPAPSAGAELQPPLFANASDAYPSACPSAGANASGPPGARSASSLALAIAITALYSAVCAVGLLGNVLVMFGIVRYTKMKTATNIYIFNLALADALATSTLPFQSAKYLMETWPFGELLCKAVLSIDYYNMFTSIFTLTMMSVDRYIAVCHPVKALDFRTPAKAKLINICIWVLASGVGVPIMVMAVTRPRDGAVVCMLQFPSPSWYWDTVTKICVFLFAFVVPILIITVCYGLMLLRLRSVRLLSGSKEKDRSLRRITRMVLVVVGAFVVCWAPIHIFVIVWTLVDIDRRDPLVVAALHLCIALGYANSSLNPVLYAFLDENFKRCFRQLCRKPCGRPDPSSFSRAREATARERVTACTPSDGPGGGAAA
Chain of Translocator protein (Homo sapiens) (P30536 whole entry): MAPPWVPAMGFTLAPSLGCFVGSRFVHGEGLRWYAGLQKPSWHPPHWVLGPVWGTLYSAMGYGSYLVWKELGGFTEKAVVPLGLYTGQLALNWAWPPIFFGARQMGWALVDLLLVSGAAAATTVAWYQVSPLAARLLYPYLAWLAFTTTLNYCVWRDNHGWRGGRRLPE
Chain of 5-hydroxytryptamine receptor 5A (Homo sapiens) (P47898 whole entry): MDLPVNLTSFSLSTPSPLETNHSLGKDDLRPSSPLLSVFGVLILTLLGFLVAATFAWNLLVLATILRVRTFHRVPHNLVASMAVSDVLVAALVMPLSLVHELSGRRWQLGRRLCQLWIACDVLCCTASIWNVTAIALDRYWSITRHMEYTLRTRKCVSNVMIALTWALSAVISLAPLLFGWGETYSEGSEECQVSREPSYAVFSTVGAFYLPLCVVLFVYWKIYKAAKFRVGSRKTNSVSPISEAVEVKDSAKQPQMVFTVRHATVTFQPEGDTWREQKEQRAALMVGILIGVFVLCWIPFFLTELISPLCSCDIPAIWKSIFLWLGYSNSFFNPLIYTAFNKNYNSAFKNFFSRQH
Chain of Kappa-type opioid receptor (Homo sapiens) (P41145 whole entry): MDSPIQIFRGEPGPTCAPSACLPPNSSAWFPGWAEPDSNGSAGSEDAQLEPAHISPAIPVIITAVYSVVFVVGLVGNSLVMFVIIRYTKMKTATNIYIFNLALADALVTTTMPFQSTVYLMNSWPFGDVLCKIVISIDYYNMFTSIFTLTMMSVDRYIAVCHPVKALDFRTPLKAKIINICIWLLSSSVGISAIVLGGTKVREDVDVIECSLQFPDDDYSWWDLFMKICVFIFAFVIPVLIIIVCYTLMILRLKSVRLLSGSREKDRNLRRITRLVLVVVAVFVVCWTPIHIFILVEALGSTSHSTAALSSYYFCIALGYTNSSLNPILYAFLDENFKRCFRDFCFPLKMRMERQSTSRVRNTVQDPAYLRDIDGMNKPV

SMILES: Cc1cc(NC(=O)Nc2ccc(N(C)C)cc2)c2cc(F)cc(F)c2n1
- inhibition [1]: 3.42%
- inhibition [2]: 22.3%
- inhibition [3]: 6.71%
- inhibition [4]: 14%
- inhibition [5]: 8.35%
- inhibition [6]: 6.41%
- inhibition [7]: 52.8%

SMILES: CNC[C@H](O)c1cccc(O)c1
- inhibition [1]: 27.4%
- inhibition [3]: 26.6%
- inhibition [4]: 10.8%
- inhibition [8]: -8.03%
- inhibition [5]: 11.8%
- inhibition [9]: 13.8%
- inhibition [6]: -2.34%
- inhibition [10]: 26.3%
- inhibition [11]: 1.52%

SMILES: CC(C)(N)C(=O)N[C@H](COCc1ccccc1)C(=O)N1CCC2(CC1)CN(S(C)(=O)=O)c1ccccc12
- inhibition [1]: 3.39%
- inhibition [2]: 17.4%
- inhibition [3]: 9.82%
- inhibition [4]: 11.4%
- inhibition [5]: 9.25%
- inhibition [12]: -1.48%
- inhibition [9]: 3.11%
- inhibition [6]: 24.6%
- inhibition [7]: 1.1%
- inhibition [11]: -5.57%

SMILES: N#Cc1cccc(C(=O)Nc2cc(-c3ccccc3)nn2-c2ccccc2)c1
- inhibition [1]: 4.85%
- inhibition [2]: 16.2%
- inhibition [4]: -3.29%
- inhibition [12]: 0.95%
- inhibition [6]: -6.18%
- inhibition [7]: 20.9%
- inhibition [10]: 1.34%
- inhibition [11]: 14.8%

SMILES: N#Cc1c(N)nc(SCC(N)=O)c(C#N)c1-c1ccc(OCC2CC2)cc1
- inhibition [1]: 16.2%
- inhibition [2]: 89%
- inhibition [3]: 0.73%
- inhibition [4]: -6.52%
- inhibition [5]: 39%
- inhibition [9]: -1.99%
- inhibition [6]: 22.6%
- inhibition [7]: -6.03%
- inhibition [10]: 7.71%
- inhibition [11]: 2.75%

SMILES: CN(C(=O)Cc1ccc(Cl)c(Cl)c1)C(CN1CCCC1)c1cccc(OCC(=O)O)c1 (configuration not stated)
- inhibition [1]: -0.83%
- inhibition [2]: 100%
- inhibition [3]: 5.15%
- inhibition [8]: 9.38%
- inhibition [5]: 21.5%
- inhibition [9]: 71.9%
- inhibition [6]: 47.4%
- inhibition [10]: 1.89%
- inhibition [11]: 24.9%

SMILES: S=C(NCCCc1c[nH]cn1)NCCCN(Cc1ccc(Cl)c(Cl)c1)c1ccc(Br)cn1
- inhibition [1]: 84.5%
- inhibition [2]: 64.9%
- inhibition [3]: 65.9%
- inhibition [4]: 89.3%
- inhibition [8]: 48.4%
- inhibition [5]: 30.9%
- inhibition [12]: 51.4%
- inhibition [9]: 27%
- inhibition [6]: 83%
- inhibition [10]: 96.7%
- inhibition [11]: 43.2%

SMILES: COc1ccc(S(=O)(=O)N2c3ccc(Cl)cc3[C@](O)(c3ccccc3Cl)[C@@H]2C(=O)N2CCC[C@H]2C(N)=O)cc1OC
- inhibition [1]: -4.04%
- inhibition [2]: 16.3%
- inhibition [3]: 10.8%
- inhibition [4]: 2.62%
- inhibition [9]: 19%
- inhibition [6]: 5.97%
- inhibition [7]: 29.5%
- inhibition [10]: -7.91%
- inhibition [11]: 8.75%

SMILES: O=C(Nc1ccc(Cl)cc1)Nc1cccc(-c2cccc(N3CCCC3)n2)c1
- inhibition [1]: 1.27%
- inhibition [2]: 7.04%
- inhibition [3]: 0.2%
- inhibition [5]: 34.9%
- inhibition [6]: -4.85%
- inhibition [7]: 12.7%
- inhibition [11]: 28.2%

SMILES: Nc1nc2c(c(N3CCNCC3)n1)CCC1=C2[C@@H]2CCCC[C@@H]2O1
- inhibition [1]: -7.78%
- inhibition [4]: -8.32%
- inhibition [8]: 15.3%
- inhibition [5]: -6.86%
- inhibition [12]: -1.02%
- inhibition [6]: 55%
- inhibition [10]: -4.34%
- inhibition [11]: 49.9%

SMILES: OC1(c2ccc(Cl)cc2)CCN(Cc2c[nH]c3ccccc23)CC1
- inhibition [1]: 66.1%
- inhibition [2]: 3.1%
- inhibition [3]: 21.4%
- inhibition [4]: 37.1%
- inhibition [8]: -9.56%
- inhibition [5]: -2.88%
- inhibition [12]: 40.1%
- inhibition [9]: 3.7%
- inhibition [6]: 38.8%
- inhibition [10]: 37.7%
- inhibition [11]: 2%

SMILES: O=C(Cc1ccccc1)Nc1nc2ccc(Cl)cc2c2nc(-c3ccco3)nn12
- inhibition [1]: 10.4%
- inhibition [2]: 12.4%
- inhibition [3]: -5.53%
- inhibition [4]: -7.34%
- inhibition [5]: 18.7%
- inhibition [6]: 29.1%
- inhibition [7]: -4.43%
- inhibition [10]: 15.2%
- inhibition [11]: -8.72%

SMILES: CN1CC(=O)N=C1NC(=O)Nc1cccc(Cl)c1
- inhibition [1]: 7.79%
- inhibition [2]: 2.28%
- inhibition [3]: -0.49%
- inhibition [4]: -6.38%
- inhibition [8]: 1.42%
- inhibition [5]: -8.11%
- inhibition [12]: 18.3%
- inhibition [9]: -3.44%
- inhibition [6]: -1.11%
- inhibition [10]: 18.4%

SMILES: O=C(Cc1ccc(Cl)c(Cl)c1)N1CCCC[C@H]1CN1CCCC1
- inhibition [1]: 31.2%
- inhibition [2]: 99.7%
- inhibition [3]: 12.3%
- inhibition [4]: 11.4%
- inhibition [5]: 8.29%
- inhibition [12]: -9.99%
- inhibition [9]: 17.6%
- inhibition [6]: 23.8%
- inhibition [7]: 12%
- inhibition [11]: -1.23%

SMILES: O=C(c1cc2c(cc1F)OC(c1ccc(F)cc1)(c1ccc(Cl)cc1Cl)O2)N1CCOCC1 (configuration not stated)
- inhibition [1]: 14.6%
- inhibition [2]: 71.4%
- inhibition [3]: 3.46%
- inhibition [8]: -9.02%
- inhibition [5]: 49.3%
- inhibition [12]: 75.9%
- inhibition [9]: 24.5%
- inhibition [6]: 15.4%
- inhibition [10]: -2.04%
- inhibition [11]: 5.52%

SMILES: COc1ccccc1CN[C@H]1C2CCN(CC2)[C@H]1C(c1ccccc1)c1ccccc1
- inhibition [1]: -7.95%
- inhibition [2]: 49.1%
- inhibition [3]: 11.1%
- inhibition [4]: 1.04%
- inhibition [8]: 13.3%
- inhibition [5]: 30.2%
- inhibition [6]: 40.4%
- inhibition [10]: 19.7%
- inhibition [11]: -1.15%

SMILES: N=C(N)SCCc1c[nH]cn1
- inhibition [1]: -6.16%
- inhibition [2]: 5.15%
- inhibition [3]: 8.64%
- inhibition [4]: -9.87%
- inhibition [8]: -9.79%
- inhibition [5]: 5.09%
- inhibition [12]: 3.23%
- inhibition [9]: -6.86%
- inhibition [6]: 6.96%
- inhibition [10]: -5.14%

From ChEMBL document CHEMBL5442219
